Measurements taken from patent US7807176B2, “Polypeptide promoting vascular endothelial cell growth” (Genomidea, Inc., priority 2004, dated 2010).

Legend:
[1] = tested on: c-fos promoter; assay: c-fos promoter assay (c-fos-Luci luciferase); type: cell-based, bovine
Protocol: To further confirm the proliferation ability, an assay using a promoter of proto-oncogene c-fos, which is activated in the earliest stage of cell proliferation, was carried out. The gene c-fos-Luci having luciferase ligated under this promoter, and a candidate gene, were introduced in a weight ratio of 1:1 by lipofection into bovine vascular endothelial cells, and after 24 to 48 hours, the luciferase activity was measured.

[2] = tested on: human vascular smooth muscle cell (VSMC); assay: Cell proliferation after gene transfer into VSMC; type: cell-based; conditions: FIG. 4
[3] = tested on: human aortic endothelial cells (HAEC); assay: Cell proliferation assay after gene transfer into HAEC (Cell Titer 96); type: cell-based; conditions: HAEC as host cell; FIG. 4
Protocol: A human heart cDNA library (a plasmid having human heart-derived cDNA ligated to plasmid pSPORT having a CMV promoter; GIBCO BRL) was introduced into E. coli DH12S, and the plasmid prepared from the E. coli. 200 μg of the plasmid was encapsulated in 10000 HAU of the HVJ-E gene-transfer vector (the gene-transfer vector, 3×10^9 particles, prepared in Example 2 in the present invention). As host cells, human aortic endothelial cells HEAC (Sanko Junyaku Co., Ltd.), about 5000 cells, were added together with medium to each well of a 96-well microtiter plate, then cultured overnight and used. 1/100 of the HVJ-E was added to each well containing the host cells, and then left at 37° C. for 30 minutes, followed by exchanging the medium. […]
After2 weeks, a cell proliferation assay was carried out. Using Cell Titer 96 (Promega) as a reagent, the oxidoreduction of mitochondria was measured as a change in the color of the reagent and used as an indicator of cell growth. […]
Each of nine clones having the insert was encapsulated respectively in HVJ-E and subjected to a second screening, and as a result, a gene showing a high proliferation activity was obtained. […] The gene c-fos-Luci having luciferase ligated under this promoter, and a candidate gene, were introduced in a weight ratio of 1:1 by lipofection into bovine vascular endothelial cells, and after 24 to 48 hours, the luciferase activity was measured. […]

[4] = tested on: tube formation; assay: Tube formation, Kurabo Angiogenesis kit with CD31 staining and image quantification; type: cell-based, human; conditions: for Area (% increase): Example 5, Table 4; for Length (% increase): Example 5, Table 5; for tube Area % Increase / tube Length % Increase: Table 2
Protocol: Using a Kurabo Angiogenesis kit (KZ-1000, Kurabo Industries Ltd.), tube formation was examined. A blank, vascular endothelial growth factor-A protein (VEGF-A), pVEGF plasmid (plasmid containing a gene encoding vascular endothelial growth factor), and pSPORT1 (a plasmid not containing a gene encoding vascular endothelial growth factor) were used as controls. […]
Culture was carried out at 37° C. in a 5% CO2 incubator. The medium was exchanged on the 4th, 7th and 9th days of culture with a fresh medium containing the same additives.
CD31 (PECAM-1) staining primary antibody (mouse anti-human CD31 antibody) was diluted 4,000-fold with a blocking solution (Dulbecco's phosphate buffer solution (PBS(−)) containing 1% BSA). 0.5 ml of this primary antibody solution was added to each well and incubated for 60 minutes at 37° C. After incubation was finished, each well was washed 3 times with 1 ml blocking solution.
Then, 0.5 ml of a secondary antibody (goat anti-mouse IgG/alkali phosphatase conjugate) solution, diluted 500-fold with the blocking solution, was added to each well and incubated for 60 minutes at 37° C., and each well was washed 3 times with 1 ml distilled water. Separately, 2 tablets of BCIP/NBT were dissolved in 20 ml distilled water and filtered through a filter with a pore size of 0.2 μm, to prepare a substrate solution. 0.5 ml of the prepared BCIP/NBT substrate solution was added to each well and incubated at 37° C. until the tube turned deep violet (usually in 5 to 10 minutes). After incubation was finished, each well was washed 3 times with 1 ml distilled water, followed by removing the washing solution using suction, and the plate was left to air-dry. After drying, each well was observed under a microscope.
Each well was observed under a 40× magnification microscope and a photograph of each well was taken. An enlarged photograph with the scale of 1 mm magnified 40-fold was taken (FIG. 5).
Each of the resulting images was quantified with angiogenesis quantification software (KSW-5000U, Kurabo Industries Ltd.) according to the following method. The area (left in FIG. 6) and length (right in FIG. 6) of tubes formed in each visual field were measured on the scale by computer analysis with various indicators. […]

[5] = tested on: VEGF promoter; assay: VEGF promoter assay (luciferase gene ligated to VEGF promoter); type: cell-based, bovine; conditions: FIG. 3 right graph
[6] = tested on: ERK (extracellular signal-related kinase); conditions: according to a previous study; cited from earlier work
[7] = tested on: HAEC; assay: MTS assay of endothelial cell proliferation with added peptide; type: cell-based, human; conditions: MTS, Table 3
Protocol: F2 peptide was synthesized and then contacted in a varying amount with HAEC, and the ability thereof to proliferate the cells was examined by MTS assay. The MTS assay is a modification of the MTT assay, and is a method of measuring living cells based on a reaction of reducing tetrazolium salt (MTS) by living cells in culture, into a colored product formazan. Specifically, this assay is carried out as follows: • HAEC was inoculated onto a 96-well plate at a density of 750 cells/well. • 2 μl/well of each sample was added to 100 μl/well endothelial cell medium (1% FBS, without EGF). 2 μl/well was added every day (until Day 6) (the medium was not exchanged). • 20 μl measurement solution (Cell Titer 96 AQueous One Solution Cell Proliferation Assay (Promega)) was added to each well and mixed with 100 μl of the endothelial cell medium, and the old medium was removed by suction. A mixed suspension of the measurement solution and the cells was put in a volume of 120 μl/well and then incubated for 1 to 5 hours in a CO2 incubator. • The absorbance at 490 nm was measured with a plate reader.
The sample group (8 wells each) is as follows: • NC: Only EBM medium (endothelial cell medium) containing 1% FBS. The other samples were cultured by adding various peptides to this medium containing serum. • VEGF-A: Recombinant VEGF-A (KURABO) was added at a final concentration of 10 ng/ml. • F2-1: F2 peptide was added at a final concentration of 1 ng/ml. • F2-10: F2 peptide was added at a final concentration of 10 ng/ml. • F2-100: F2 peptide was added at a final concentration of 100 ng/ml. • F2-1000: F2 peptide was added at a final concentration of 1000 ng/ml.

[8] = tested on: phosphatidyl inositol-3-kinase/Akt (PI3K/Akt); conditions: according to a previous study; cited from earlier work
[9] = tested on: HEAC endothelial cells; assay: Endothelial cell migration, modified Boyden chamber; type: cell-based, human
Protocol: A polyvinyl pyrrolidone (PVP)-free polycarbonate membrane having […] (Neuro Probe Inc., Gaithersburg, Md.) was coated overnight with 0.1% gelatin and then washed with phosphate buffered saline to remove an excess of the gelatin coating. Then, 28 μl growth factor-free EBM2 medium supplemented with 1% FBS was arranged in a lower chamber, and the membrane was arranged on the lower chamber. […] The Boyden chamber was incubated at 37° C. for 4 hours. After incubation, the membrane was removed and the cells on the upper side of the membrane were removed. The cells on the lower side of the membrane were stained with Diff-Quick (Sysmex, Hyogo Pref., JP). The cells in each of randomly selected 8 visual fields (×100) were counted.

**Q.** Which “activity in c-fos promoter assay of gene fragments in pCDNA3.1” value ([1]; FIG. 8) does the source give for “f1: gene fragment, nucleotide sequence No. 2764-3073 in the frame of SART-2, ligated with expression vector pCDNA3.1” here?
**A.** The value was “no activity”.

**Q.** With “p3743: gene clone (plasmid) from a human heart cDNA library; insert is nucleotide sequence No. 2364-3958 in SART-2” as the substance, how does the “proliferation activity in human vascular smooth muscle cells after gene introduction” value [2] read?
**A.** Its value is “same as that of the negative control, GFP”.

**Q.** And the “proliferation ability in HAEC after gene introduction” value [3]?
**A.** The value was “higher proliferation ability than HGF”.

**Q.** And the “area and length of the formed tubes” value ([4]; supernatant of HAEC into which the gene had been introduced, FIG. 6)?
**A.** The value was “significantly greater”.

**Q.** And the “ability to activate the c-fos promoter, compared with VEGF” value ([1]; FIG. 3 left graph)?
**A.** The value was “higher ability to activate the c-fos promoter than VEGF”.

**Q.** What about the “luciferase activity (activation of c-fos promoter), compared with HGF” value ([1]; candidate gene and c-fos-Luci 1:1 by lipofection, bovine vascular endothelial cells, after 24 to 48 hours, FIG. 2) of the same substance?
**A.** Its value is “higher luciferase activity than HGF”.

**Q.** And the “activation of the VEGF promoter, compared with VEGF” value [5]?
**A.** The value was “higher activation of the VEGF promoter than by VEGF”.

**Q.** Which results are given for “LL-37 peptide: peptide having antimicrobial activity, angiogenesis activity and artery-forming activity; rich in arginine, α-helix structure [reference compound]”?
**A.** effect on ERK activity [6]: increased rapidly; endothelial proliferation Increase [times] ([7]; 100 ng/ml): 1.279 times; endothelial proliferation Increase [times] ([7]; 1 μg/ml): 1.361 times; Area (% increase) ([4]; 1 μg/ml): 70.1%; Length (% increase) ([4]; 1 μg/ml): 60.9%; Area (% increase) ([4]; 10 μg/ml): 43%; Length (% increase) ([4]; 10 μg/ml): 28%; effect on PI3K/Akt activity [8]: increased rapidly

**Q.** For “RSLEGTDRFPFVRLKNSRKLEFKDIKGIKR (CONTROL PEPTIDE) [reference compound]”, which “tube Area % Increase” value ([4]; 1 μg/ml) is on record?
**A.** The value was −12%.

**Q.** What about the “tube Length % Increase” value ([4]; 1 μg/ml) of the same substance?
**A.** Its value is −11%.

**Q.** And the “tube Area % Increase” value ([4]; 10 μg/ml)?
**A.** The value was −9%.

**Q.** And the “tube Length % Increase” value ([4]; 10 μg/ml)?
**A.** The value was −3%.

**Q.** What about the “migration % Increase” value ([9]; 1 μg/ml, 4 hours) of the same substance?
**A.** The value was −10.1%.

**Q.** What about the “cell migration activity (in words)” value ([9]; F2 0.01 to 1 μg/ml, control peptide 1 μg/ml, VEGF 50 ng/ml, FIG. 10) of the same substance?
**A.** The value was “not observed”.
